Data on 12 compounds can be found in ChEMBL document CHEMBL1201862, “PubChem BioAssay data set” (2004).

The structures appear in SMILES notation.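 Tested at 5 concentrations; 48 h exposure; 96-well plates; endpoints linearly interpolated, else capped at highest concentration. GI50: concentration for 50% inhibition of growth.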 Active and inactive are the calls of the source. No stated cut-off is given here; in the data, active = GI50 up to about 1.1 µM and inactive = higher. A value given as a limit tells only on which side of the number the result lay.

Among the test systems are A498; ACHN; DU-145; HCC 2998; HCT-116; HOP-62; Hs-578T; IGROV-1; MDA-MB-231; Malme-3M; NCI-H460; NCI-H522; OVCAR-4; PC-3; SK-MEL-28; SK-MEL-5; SK-OV-3; UACC-257; MDA-MB-435; COLO 205.
Holding throughout (assay): inhibition of tumour cell growth, NCI panel, 48 h

Take `Cc1c(C#N)c(N)n(C2OC(CO)C(O)C(O)C2O)c(=S)c1C#N` (stereo not given): the GI50 in the assay on A498, in the assay on ACHN, with DU-145, in the assay with HCC 2998, in the assay with HCT-116 and in the assay with HOP-62 was > 100 µM (inactive) each time. Besides, the GI50 in the assay on Hs-578T, in the assay with IGROV-1, in the assay on MDA-MB-231, with Malme-3M, in the assay with NCI-H460 and in the assay with NCI-H522 was > 100 µM (inactive) in each case. The GI50 was > 100 µM (inactive) in the assay on OVCAR-4; > 100 µM (inactive) with PC-3; > 100 µM (inactive) in the assay with SK-MEL-28; > 100 µM (inactive) in the assay on SK-MEL-5; 6.47 µM (inactive) in the assay on SK-OV-3; > 100 µM (inactive) in the assay with UACC-257.
With `CN1CC[C@@]2(c3cccc(O)c3)CC(=O)/C(=C/c3ccc(Cl)c(Cl)c3)[C@H]1C2`, the GI50 in the assay with A498 is 13.6 µM (inactive); with ACHN it was 1.67 µM (inactive); in the assay with DU-145, 5.04 µM (inactive); in the assay with HCC 2998 it was 1.82 µM (inactive); with HOP-62, 2.67 µM (inactive); with Hs-578T, 2.51 µM (inactive). For the same compound, the GI50 in the assay with IGROV-1 is 2.23 µM (inactive); in the assay on MDA-MB-435 it was 1.41 µM (inactive); in the assay on Malme-3M, 3.44 µM (inactive); with NCI-H460, 2.11 µM (inactive); with OVCAR-4, 4.59 µM (inactive); in the assay on PC-3 it was 1.57 µM (inactive). Further, the GI50 was 1.93 µM (inactive) in the assay on SK-MEL-28, 2 µM (inactive) with SK-MEL-5 and 3.41 µM (inactive) in the assay on UACC-257.
Take `Cc1c2c3cc(O)ccc3nc-2n(C)c2ccccc12`: the GI50 in the assay on ACHN was 0.479 µM (active); in the assay on DU-145, 3.08 µM (inactive); in the assay on HCC 2998, 2.77 µM (inactive); with HCT-116, 0.459 µM (active); with HOP-62, 1.5 µM (inactive); in the assay with Hs-578T, 2.9 µM (inactive). Further, the GI50 with IGROV-1 is 2.17 µM (inactive); in the assay on MDA-MB-435, 1.36 µM (inactive); with Malme-3M it was 1.48 µM (inactive); in the assay on NCI-H460, 0.434 µM (active); with PC-3, 1.75 µM (inactive); with SK-MEL-28, 2.06 µM (inactive). The GI50 in the assay on SK-MEL-5 was 1.09 µM (active); in the assay on SK-OV-3 it was 1.46 µM (inactive); with UACC-257 it was 2.69 µM (inactive).
As to `CN(C)C(=N)/N=C(\N)Nc1cccc(Cl)c1`, the GI50 in the assay on ACHN is 55.5 µM (inactive); in the assay on COLO 205, 20 µM (inactive); in the assay on HCC 2998, > 100 µM (inactive); with HCT-116, 85.7 µM (inactive); in the assay on HOP-62 it was > 100 µM (inactive); in the assay with Hs-578T it was > 100 µM (inactive). For the same compound, the GI50 in the assay with IGROV-1 was 24.5 µM (inactive); with MDA-MB-231, 46.7 µM (inactive); in the assay with MDA-MB-435, > 100 µM (inactive); in the assay with Malme-3M it was 45.3 µM (inactive); in the assay on NCI-H460 it was 91.6 µM (inactive); in the assay on OVCAR-4, > 100 µM (inactive). The GI50 in the assay on PC-3 was 41.8 µM (inactive); in the assay on SK-MEL-28, > 100 µM (inactive); with SK-MEL-5 it was 28.1 µM (inactive); in the assay with SK-OV-3, > 100 µM (inactive); in the assay on UACC-257, 90.8 µM (inactive).
As for `CC(=O)Nc1nc2c(=O)c3ccccc3sc2s1`, the GI50 in the assay with A498, in the assay with ACHN, with COLO 205, in the assay with DU-145, in the assay with HCT-116 and in the assay on HOP-62 was > 100 µM (inactive) throughout. In addition, the GI50 in the assay with Hs-578T, with IGROV-1, with MDA-MB-231, in the assay on NCI-H460, in the assay with PC-3 and in the assay with SK-MEL-5 was > 100 µM (inactive) each time. The GI50 with UACC-257 was > 100 µM (inactive).
Regarding `CC(C)N1CC2CN(Cc3ccccc3)CC(C1)C2=O`, the GI50 with ACHN, in the assay with COLO 205, in the assay with DU-145, with HCC 2998, in the assay on HCT-116 and in the assay with HOP-62 was > 100 µM (inactive) each time. Also, the GI50 in the assay with Hs-578T, with IGROV-1, with MDA-MB-231, in the assay on MDA-MB-435, in the assay on Malme-3M and in the assay with NCI-H460 was > 100 µM (inactive) each time. For the same compound, the GI50 in the assay on NCI-H522, with OVCAR-4, with PC-3, with SK-MEL-28, in the assay with SK-OV-3 and in the assay on UACC-257 was > 100 µM (inactive) in each case.
As to `COC(=O)/C=C/c1cc(O)c2c(c1)[C@H](C(=O)OC)[C@@H](c1ccc(O)c(O)c1)O2`, the GI50 in the assay with A498 is 6.82 µM (inactive); with ACHN, 0.08 µM (active); in the assay with COLO 205, 11.5 µM (inactive); in the assay on DU-145, 0.273 µM (active); with HCC 2998, 19.2 µM (inactive); with HCT-116, 0.0499 µM (active). Moreover, the GI50 in the assay on HOP-62 is 0.333 µM (active); in the assay on Hs-578T, 0.046 µM (active); with IGROV-1, 0.221 µM (active); in the assay with MDA-MB-435, < 0.01 µM (active); in the assay with NCI-H460, 2.56 µM (inactive); with NCI-H522, 0.0706 µM (active). Also, the GI50 is 2.76 µM (inactive) in the assay on OVCAR-4; 1.57 µM (inactive) with PC-3; 0.132 µM (active) in the assay on SK-MEL-28; 0.0335 µM (active) with SK-MEL-5; 0.319 µM (active) in the assay on SK-OV-3; 17.4 µM (inactive) with UACC-257.
As to `CCc1ccc2c(c1)CC1(C2)Cc2cc3c(cc2C1)C(=O)CC3` (stereo not given), the GI50 was 10.9 µM (inactive) in the assay on A498; 17.9 µM (inactive) in the assay with ACHN; 4.93 µM (inactive) in the assay with COLO 205; 10.5 µM (inactive) with HCC 2998; 12.1 µM (inactive) in the assay on HCT-116; 19.8 µM (inactive) with HOP-62. The GI50 in the assay with Hs-578T was > 100 µM (inactive); in the assay on IGROV-1, 17.3 µM (inactive); with MDA-MB-231, 21.2 µM (inactive); in the assay on MDA-MB-435, 2.69 µM (inactive); with Malme-3M, 14.9 µM (inactive); with NCI-H522, 20.3 µM (inactive). The GI50 in the assay on OVCAR-4 was 15 µM (inactive); in the assay on PC-3, 16.3 µM (inactive); with SK-MEL-5 it was 5.01 µM (inactive); in the assay on SK-OV-3, 25.1 µM (inactive); in the assay with UACC-257, 8.39 µM (inactive).
In the case of `N#Cc1nc(NC(=O)c2ccccc2)sc1N`, the GI50 with A498, in the assay with ACHN, with COLO 205, in the assay with DU-145, in the assay on HCC 2998 and in the assay on HCT-116 was > 10 µM (inactive) in each case. Besides, the GI50 with HOP-62, with IGROV-1, with MDA-MB-231, in the assay with MDA-MB-435, with Malme-3M and in the assay on NCI-H460 was > 10 µM (inactive) throughout. In addition, the GI50 with NCI-H522 is > 10 µM (inactive); in the assay on OVCAR-4, > 6.07 µM (inactive); with PC-3 it was > 10 µM (inactive); in the assay on SK-MEL-28 it was > 10 µM (inactive); in the assay with SK-MEL-5, > 10 µM (inactive); in the assay with SK-OV-3, > 10 µM (inactive). The GI50 in the assay with UACC-257 is > 10 µM (inactive).
Take `O=C(N/N=C/c1ccccc1O)c1ccccc1Nc1ccccc1C(=O)N/N=C/c1ccccc1O`: the GI50 was > 100 µM (inactive) with A498; 0.394 µM (active) in the assay on ACHN; 0.303 µM (active) in the assay on COLO 205; 2.25 µM (inactive) in the assay on DU-145; > 100 µM (inactive) in the assay on HCC 2998; 0.198 µM (active) with HCT-116. The GI50 in the assay on HOP-62 is 0.432 µM (active); in the assay with IGROV-1, 0.458 µM (active); in the assay on MDA-MB-231, 99.3 µM (inactive); with MDA-MB-435, 2.41 µM (inactive); in the assay on Malme-3M, 0.29 µM (active); in the assay with NCI-H460, 0.371 µM (active). The GI50 in the assay on NCI-H522 was 0.277 µM (active); with OVCAR-4 it was 0.375 µM (active); with PC-3 it was 13.4 µM (inactive); in the assay with SK-MEL-28 it was 0.182 µM (active); with SK-MEL-5, 0.541 µM (active); in the assay on SK-OV-3, 3.1 µM (inactive). Further, the GI50 in the assay with UACC-257 is 2.97 µM (inactive).
In the case of `O=C(Nc1cccc(C(F)(F)F)c1)C(=O)C(C(=O)c1ccc2ccccc2c1)C1OC(=O)c2ccccc21` (stereo not given), the GI50 was 9.93 µM (inactive) in the assay on A498; 12.6 µM (inactive) in the assay on ACHN; 10.9 µM (inactive) in the assay with COLO 205; 26.5 µM (inactive) in the assay with DU-145; 10.8 µM (inactive) in the assay on HCC 2998; 6.82 µM (inactive) in the assay on HCT-116. Further, the GI50 is 11.5 µM (inactive) in the assay with HOP-62; 7.14 µM (inactive) in the assay on Hs-578T; 18.2 µM (inactive) in the assay with IGROV-1; 17.4 µM (inactive) in the assay with MDA-MB-435; 6.81 µM (inactive) in the assay on Malme-3M; 5.61 µM (inactive) with NCI-H460. For the same compound, the GI50 was 8.26 µM (inactive) in the assay with NCI-H522; 9.12 µM (inactive) in the assay on OVCAR-4; 6.79 µM (inactive) with SK-MEL-28; 10.5 µM (inactive) in the assay with SK-MEL-5; 21.6 µM (inactive) in the assay on SK-OV-3; 11.5 µM (inactive) in the assay with UACC-257.
With `CCN(CC)CCN(/C(=N/c1ccccc1)N1CCOCC1)c1ccccc1`, the GI50 in the assay with COLO 205 is 39.4 µM (inactive); in the assay on DU-145, > 100 µM (inactive); in the assay on HCC 2998, > 100 µM (inactive); in the assay on HCT-116, 9.89 µM (inactive); with HOP-62, 74.6 µM (inactive); in the assay on Hs-578T, > 100 µM (inactive). Also, the GI50 in the assay on IGROV-1 is 48.4 µM (inactive); with MDA-MB-231, > 100 µM (inactive); with MDA-MB-435, 28.8 µM (inactive); with Malme-3M, > 100 µM (inactive); with NCI-H460, > 100 µM (inactive); in the assay on NCI-H522 it was > 100 µM (inactive). Moreover, the GI50 with OVCAR-4 was 95.7 µM (inactive); in the assay on PC-3, > 100 µM (inactive); in the assay with SK-MEL-28 it was > 100 µM (inactive); in the assay on SK-MEL-5, > 100 µM (inactive); in the assay on SK-OV-3 it was > 100 µM (inactive); in the assay on UACC-257, > 100 µM (inactive).
